From patent US20220062245A1, “AGENT FOR IMPROVING INFERTILITY, RECURRENT MISCARRIAGE, AND STATE OF PREGNANCY” (priority 2018, published 2022)
Entries after “also recorded” stand apart in the source; their conditions may differ.

Legend:
[1] = system: RPL (recurrent pregnancy loss) patient; settings: cited from earlier work; for Outcome of earlier treatment: low-dose aspirin, heparin, prednisolone 5 mg/day, large-quantity γ-globulin 1 g/kg for 3 days, given in this order
[2] = system: patient suffering from a blood type incompatible pregnancy with negative maternal Rho (D) and positive fetal Rho (D); assay: Anti-D antibody titer by indirect Coombs test, Example 1 patient; type: in vivo, human; settings: for Anti-D antibody titer: maternal blood, tacrolimus 4 mg/day oral
Method: Measurement of Anti-D Antibody Titer
The measurement is carried out by the indirect Coombs test. The indirect Coombs test is a test in which an anti-immunoglobulin antibody is added to a mixture of the blood serum of a patient and the blood of a healthy person to examine whether a hemagglutination reaction occurs (any irregular antibody present in the blood serum is detected) (for the Coombs test, see Nissan Women's Journal Vol. 59, No. 10, N-617-N-623).
(§1) The patient is a person having blood type A. The patient suffering from a blood type incompatible pregnancy with negative maternal Rho (D) and positive fetal Rho (D) was subjected to the following treatments. That is, at the time of the first pregnancy, anti-D immunoglobulin was not administered during pregnancy, sensitization was effected before delivery, and the anti-D antibody titer at the time of delivery was 8-fold. In week 39, they gave birth by emergency cesarean section due to placental abruption of the upper placenta.
(§2) The anti-D antibody titer obtained immediately after the establishment of pregnancy was 4-fold; however, the titer reached 16-fold in week 24 and reached 32-fold in week 26 (FIG. 6, upper part). After that, migration of fetal antigens to the mother's body via the placenta was assumed to further increase, and preparation of plasmapheresis and fetal blood transfusion was initiated in preparation for a rapid increase in the antibody titer.
(§3) Furthermore, the blood flow velocity in the middle cerebral artery and the estimated body weight of the fetus were measured by fetal ultrasonography.

[3] = system: patient suffering from a blood type incompatible pregnancy with negative maternal Rho (D) and positive fetal Rho (D); assay: Pregnancy course and fetal/neonatal outcome in blood type incompatible pregnancy treated with tacrolimus (Example 1); type: in vivo, human
From the text: as §1
Two years later, […] hoped to have a second child but suffered from infecundity and was treated for sterility by in vitro fertilization; however, since the treatment was unsuccessful after five embryo transplantations, a close examination of the immune system was conducted. At that time, a marked increase (24.9) in the Th1/Th2 (Th1 32.4, Th2 1.3) ratio was recognized, the illness was judged as infecundity considered to be caused by an abnormality in the immune system, and a tacrolimus treatment was selected.
as §2, §3

[4] = Concentration of tacrolimus in the cord blood by chemiluminescence immunoassay (ECLIA); type: in vivo, human; settings: at delivery, mother on 5 mg/day oral
[5] = system: patient having a medical history of pregnancy-induced hypertensive nephropathy and HELLP syndrome; assay: Prevention or delay of onset of pregnancy-induced hypertension syndrome, HELLP syndrome and eclampsia (Example 4, Table 1); type: in vivo, human
From the text: A patient is a person having a medical history of pregnancy-induced hypertensive nephropathy and HELLP syndrome. […] After the delivery, pulmonary edema, disseminated intravascular coagulation (DIC), and intraperitoneal bleeding, all of which are severe complications, were recognized, and the patient received treatments such as management using an artificial respirator, supplement of albumin, and blood component transfusion.
This time, in the hematologic examination findings before pregnancy, there were no abnormalities in all of the liver function, kidney function, and coagulation function, and abnormal findings were not observed in the examination items involved in infertility such as antiphospholipid antibody syndrome (anti-CL-IgG antibody, anti-CL-IgM antibody, anti-PS/PT antibody, anti-CL-β2GP1 antibody, LAC, anti-PE-IgG antibody, and anti-PE-IgM antibody), autoimmune diseases (anti-DNA antibody and antinuclear antibody), and coagulation dysfunction.
The circumstances of the first pregnancy and the pregnancy of this time are described in Table 1.
The ratio of Th1 (CD4g^+IFN-g^+)/Th2(CD4^+IL-4^+) in CD4-positive cells is 15.2/2.1 (normal value: less than 10.3), and clear immunological abnormalities were also not observed before pregnancy [Reference Literature 12b]; however, it was assumed that after implantation of a fertilized ovum, immunity of the mother's body would be activated, and immune abnormality between the mother's body and the fetus would suppress placental construction and functions thereof, causing fetal growth restriction and hypertension during pregnancy. Considering this, the patient was treated with 1 mg/day of tacrolimus from week 4 of pregnancy, for the purpose of controlling the immunity between the mother's body and the fetus after confirmation of pregnancy.
In this case, monotherapy was carried out with 1 mg/day of tacrolimus from the early stage of pregnancy, and combined treatment of low dose aspirin (LDA) intended for HDP prevention by bloodstream improvement was not carried out [Reference Literature 13b]. Regarding the pregnancy progress, there was no problem in the second trimester of pregnancy, where the patient developed HELLP syndrome in the previous pregnancy, and pregnancy progressed smoothly to the third trimester of pregnancy; however, the patient rapidly acquired HELLP syndrome similarly to the previous pregnancy, after week 33 of pregnancy.

[6] = system: Th1 and Th2 cells among CD4-positive cells; assay: Analysis of Th1 cells and Th2 cells in patient blood by flow cytometry; type: in vivo, human
Method: Analysis of Th1 Cells and Th2 Cells
For the purpose of evaluating the baseline value of the Th1/Th2 cell ratio, a total of 10 ml of venous blood was collected. Th1 cells and Th2 cells were determined by detecting the production of intracellular interferon (IFN)-γ and IL-4.
Specific staining of lymphocytes was performed by incubating whole blood together with anti-CD4-PC5 or anti-CD8-PC5-conjugated monoclonal antibody (mAbs) (Beckman Coulter, Inc., Fullerton, Calif., USA). Red blood cells (RBCs) were removed by hemolysis (using FACS Lysing solution; Becton, Dickinson and Company, BD 134 Biosciences, Franklin Lake, N.J., USA), and lymphocytes were analyzed using flow cytometry (FACSCalibur; Becton, Dickinson and Company). Activated whole blood samples were surface-stained using anti-CD4-PC5-conjugate mAbs, and then RBC hemolysis and specific intracellular staining using Fast Immune (trademark) IFN-γ-FITC/IL-4-PE (Becton, Dickinson and Company) were carried out in sequence according to the manufacturer's instructions for use. Th1 cells were defined as CD4^+ lymphocytes accompanied by intracellular IFN-γ but not by intracellular IL-4. Th2 cells were detected as CD4^+ lymphocytes accompanied by intracellular IL-4 but not by intracellular IFN-γ. The ratio of intracellular IFN-γ-positive Th cells with respect to intracellular IL-4-positive Th cells was expressed as the Th1/Th2 cell ratio.

NK cells = assay: NK cell activity during pregnancy (Example 4); type: in vivo, human; settings: Example 4 patient during pregnancy, tacrolimus 1 mg/day; normal value 18% to 40%; FIG. 8
[7] = system: patients with five consecutive incidences of RIF (repeated implantation failure); settings: treated from two days before embryo transplantation to day of pregnancy test; daily dose by Th1/Th2 cell ratio; 16/25 versus 0% (0/17) untreated; cited from earlier work
[8] = pregnancy of this time, tacrolimus 1 mg/day, after parturition
[9] = pregnancy of this time, tacrolimus 1 mg/day, before parturition
[10] = tacrolimus 1 mg/day, after parturition
[11] = tacrolimus 1 mg/day, before parturition

Compound: heparin
- Outcome of earlier treatment [1]: not successful

Compound: CC(=O)Oc1ccccc1C(=O)O [aspirin]
- Outcome of earlier treatment [1]: not successful

Compound: C=CCC1/C=C(\C)CC(C)CC(OC)C2OC(O)(C(=O)C(=O)N3CCCCC3C(=O)OC(/C(C)=C/C3CCC(O)C(OC)C3)C(C)C(O)CC1=O)C(C)CC2OC (stereo not drawn) [tacrolimus, 17-Allyl-1,14-dihydroxy-12-[2-(4-hydroxy-3-methoxycyclohexyl)-1-methylvinyl]-23,25-dimethoxy-13,19,21,27-tetramethyl-11,28-dioxa-4-azatricyclo[22.3.1.04,9]octacos-18-ene-2,3,10,16-tetraone]
- Anti-D antibody titer in the cord blood ([2]; cord blood at delivery): double
- Anti-D antibody titer ([2]; immediately after the establishment of pregnancy): 4 fold
- Anti-D antibody titer ([2]; week 24 of pregnancy): 16 fold
- Anti-D antibody titer ([2]; week 26 of pregnancy): 32 fold
- Body weight of child at birth ([3]; Example 1, tacrolimus 4 then 5 mg/day): 2834 g
- Body weight of the fetus in the weeks of pregnancy ([3]; FIG. 7, estimated by fetal ultrasonography): smoothly increased
- Malformations of the child ([3]; child exposed in utero to tacrolimus 4 to 5 mg/day): no external malformations or visceral malformations
- Fetal anemia (blood flow velocity in the middle cerebral artery) ([3]; fetal ultrasonography during pregnancy, tacrolimus 4 then 5 mg/day): corresponded to the number of weeks; also recorded: without observing any fetal anemia; also recorded: fetal anemia was not developed during the entire course of pregnancy
- Establishment of pregnancy by embryo transplantation ([3]; person, infecundity after five unsuccessful embryo transplantations, Th1/Th2 24.9, tacrolimus 4 mg/day oral): Pregnancy was established by a single embryo transplantation
- Pregnancy progress in RhD incompatible pregnancy ([3]; without using plasma exchange, data not shown): satisfactory pregnancy progress was obtained
- Concentration of tacrolimus in the cord blood [4]: lower than or equal to the detection limit value
- Information on fetus: Fetal growth ([5]; pregnancy of this time, tacrolimus 1 mg/day from week 4): −1.9 SD
- Information on fetus: Body weight ([5]; pregnancy of this time, tacrolimus 1 mg/day from week 4, at birth): 1490 g
- Complications after parturition [5, 8]: None
- Symptoms: Edema [5, 8]: Negligible
- Symptoms: Hypertension [5, 8]: Temporary
- Proteinuria initiated (weeks of pregnancy) [5, 9]: 33 weeks of pregnancy
- Symptoms: Edema [5, 9]: Negligible
- Delay of onset of HELLP syndrome compared to the previous pregnancy ([5]; single administration of tacrolimus 1 mg/day, previous pregnancy untreated): about 13 weeks
- Proteinuria, edema, and hypertension during pregnancy progress ([5]; tacrolimus 1 mg/day monotherapy from week 4 of pregnancy): not observed until week 32 of pregnancy
- Blood examination: ALT [5, 10]: 833 U/L
- Blood examination: AST [5, 10]: 898 U/L
- Blood examination: Cr [5, 10]: 0.59 mg/dL
- Blood examination: Hb [5, 10]: 10.5 g/dL
- Blood examination: LDH [5, 10]: 1995 U/L
- Blood examination: Plt [5, 10]: 2.2 10^4/µL
- Blood examination: WBC [5, 10]: 8220 µL⁻¹
- Blood examination: ALT [5, 11]: 71 U/L
- Blood examination: AST [5, 11]: 65 U/L
- Blood examination: Cr [5, 11]: 1 mg/dL
- Blood examination: Hb [5, 11]: 11 g/dL
- Blood examination: LDH [5, 11]: 316 U/L
- Blood examination: Plt [5, 11]: 10 10^4/µL
- Blood examination: WBC [5, 11]: 8280 µL⁻¹
- Th1 ([6]; Example 1 patient, week 28 of pregnancy, on tacrolimus 4 mg/day): tendency of increase again
- Ratio (proportions) of Th1 and Th2 cells among CD4-positive cells ([6]; Example 4 patient during pregnancy, tacrolimus 1 mg/day, FIG. 8): continuously decreased
- NK cell activity (NK cells): decreased in the second trimester of pregnancy and then conspicuously increased in the examination in week 32 of pregnancy; also recorded: decreased in the second trimester and then conspicuously increased from week 32 of pregnancy
- Clinical pregnancy rate [7]: 64.0%
- Pregnancy progress ([1]; tacrolimus 2 mg/day continuously during pregnancy, no other treatments): favorable pregnancy progress

Compound: C[C@]12C=CC(=O)C=C1CC[C@@H]1[C@@H]2[C@@H](O)C[C@@]2(C)[C@H]1CC[C@]2(O)C(=O)CO [prednisolone]
- Outcome of earlier treatment [1]: not successful
